Measured values published in publication PMC6587565 (Diabetes, Obesity & Metabolism, 2018).
Like-named read-outs stand apart in the source and are kept apart here.

Experiments:
[1] = type: in vivo, human
[2] = test system: patients with type 1 diabetes mellitus; assay: Safety: adverse events, hypoglycaemic episodes, local tolerability; type: in vivo, human
[3] = test system: plasma glucose (PG) in patients with type 1 diabetes mellitus; type: in vivo, human; settings: for AUE0-30min / AUE0-240min (area under plasma glucose excursions above baseline) / CE30min (plasma glucose excursion at 30 minutes) / CEmax (maximum plasma glucose excursion) / tCEmax (time to maximum plasma glucose excursion) / tPG increase ≥ 20 mg/dL (time to increase in plasma glucose ≥[…]) / tPG ≥70 mg/dL (time to reach plasma glucose ≥[…]): T1DM patients; for AUE0-30min / AUE0-240min (area under plasma glucose excursions above baseline) / CE30min (plasma glucose excursion at 30 minutes) / CEmax (maximum plasma glucose excursion): mean (SD), SD; for tCEmax (time to maximum plasma glucose excursion) / tPG increase ≥ 20 mg/dL (time to increase in plasma glucose ≥[…]) / tPG ≥70 mg/dL (time to reach plasma glucose ≥[…]): median (range)
[4] = hypoglycaemia, single s.c. dose 0.03 mg, T1DM patients, mean (SD), N=14, SD
[5] = euglycaemia, single s.c. dose 0.6 mg, N=17
[6] = hypoglycaemia, single s.c. dose 0.03 mg, N=17
[7] = hypoglycaemia, single s.c. dose 0.08 mg, N=17
[8] = hypoglycaemia, single s.c. dose 0.2 mg, N=17
[9] = hypoglycaemia, single s.c. dose 0.6 mg, N=17

AUC0-inf ([1]; euglycaemia, single s.c. dose 0.6 mg, T1DM patients, mean (SD), N=17, SD): 3710 (585) pmol*h/L
Tmax ([1]; euglycaemia, single s.c. dose 0.6 mg, T1DM patients, median (range), N=17): 0.5 (0.25‐1) h
Tmax ([1]; human, plasma, sc, 0.03 mg): 30 min
CL/F ([1]; human, plasma, sc, 0.03 mg, SD): 863 mL/min
half-life ([1]; human, plasma, sc, 0.03 mg, SD): 22.9 min
Tmax ([1]; human, plasma, sc, 0.08 mg): 30 min
CL/F ([1]; human, plasma, sc, 0.08 mg, SD): 688 mL/min
half-life ([1]; human, plasma, sc, 0.08 mg, SD): 28.4 min
Tmax ([1]; human, plasma, sc, 0.2 mg): 30 min
half-life ([1]; human, plasma, sc, 0.2 mg, SD): 33.9 min
Tmax ([1]; human, plasma, sc, 0.6 mg): 30 min
AUC0-inf [1, 4]: 182 (45.9) pmol*h/L
CL/f (total body clearance) [1, 4]: 52.6 (16.7) L/h
AUC0-240min ([1]; hypoglycaemia, single s.c. dose 0.03 mg, T1DM patients, mean (SD), N=17, SD): 174 (43.1) pmol*h/L
Tmax ([1]; hypoglycaemia, single s.c. dose 0.03 mg, T1DM patients, median (range), N=17): 0.5 (0.25‐1) h
t1/2 (terminal elimination half-life) ([1]; hypoglycaemia, single s.c. dose 0.08 mg, T1DM patients, mean (SD), N=16, SD): 0.472 (0.154) h
Tmax ([1]; hypoglycaemia, single s.c. dose 0.08 mg, T1DM patients, median (range), N=17): 0.5 (0.25‐1) h
SMILES: CC(C)C[C@H](NC(=O)[C@H](Cc1c[nH]c2ccccc12)NC(=O)[C@H](CCCCN)NC(=O)[C@@H](NC(=O)[C@H](Cc1ccccc1)NC(=O)[C@H](CCC(=O)O)NC(=O)[C@H](CCC(=O)O)NC(=O)[C@H](C)NC(=O)[C@H](CCCNC(=N)N)NC(=O)[C@H](C)NC(=O)C(C)(C)NC(=O)[C@H](CC(=O)O)NC(=O)[C@H](CC(C)C)NC(=O)[C@H](Cc1ccc(O)cc1)NC(=O)[C@H](CCCCN)NC(=O)[C@H](CO)NC(=O)[C@H](Cc1ccc(O)cc1)NC(=O)[C@H](CC(=O)O)NC(=O)[C@H](CO)NC(=O)[C@@H](NC(=O)[C@H](Cc1ccccc1)NC(=O)[C@@H](NC(=O)CNC(=O)[C@H](CCC(N)=O)NC(=O)[C@H](CO)NC(=O)[C@@H](N)Cc1c[nH]cn1)[C@@H](C)O)[C@@H](C)O)C(C)C)C(=O)N[C@@H](CCC(=O)O)C(=O)N[C@@H](CO)C(=O)N[C@H](C(=O)O)[C@@H](C)O [Dasiglucagon, dasiglucagon]
Total hypoglycaemic events ([2]; 17 completers, range of small doses (0.03-0.2 mg)): 18
Overall safety and tolerability ([2]; all doses (0.03-0.6 mg s.c.)): safe and well tolerated
Median time (range) to an increase in PG of at least […] (20 mg/dL) ([3]; 0.03 mg s.c., at both euglycaemia and hypoglycaemia): < 20 (18‐19.5) minutes
AUE0-30min [3, 5]: 18.3 (5.25) mg*h/dL
AUE0-240min (area under plasma glucose excursions above baseline) [3, 5]: 479 (159) mg*h/dL
CE30min (plasma glucose excursion at 30 minutes) [3, 5]: 79.8 (23.4) mg/dL
CEmax (maximum plasma glucose excursion) [3, 5]: 165 (46.1) mg/dL
tCEmax (time to maximum plasma glucose excursion) [3, 5]: 90.0 (70‐240) min
tPG increase ≥ 20 mg/dL (time to increase in plasma glucose ≥[…]) [3, 5]: 10.0 (8‐14) min
Patients achieving a PG level of at least […] within 30 minutes post-dose ([3]; hypoglycaemia, dose levels of 0.08 mg and above): 100%
Patients achieving a PG level of at least […] within 30 minutes post-dose ([3]; hypoglycaemia, lowest dose level (0.03 mg)): 70.6%
AUE0-30min [3, 6]: 4.60 (5.24) mg*h/dL
AUE0-240min (area under plasma glucose excursions above baseline) [3, 6]: 70.6 (100) mg*h/dL
CE30min (plasma glucose excursion at 30 minutes) [3, 6]: 23.7 (24.9) mg/dL
CEmax (maximum plasma glucose excursion) [3, 6]: 37.9 (38.9) mg/dL
tPG increase ≥ 20 mg/dL (time to increase in plasma glucose ≥[…]) ([3]; hypoglycaemia, single s.c. dose 0.03 mg, N=10): 19.5 (12‐42) min
tPG ≥70 mg/dL (time to reach plasma glucose ≥[…]) ([3]; hypoglycaemia, single s.c. dose 0.03 mg, N=13): 14.0 (5‐37) min
tCEmax (time to maximum plasma glucose excursion) [3, 6]: 50.0 (0‐90) min
AUE0-30min [3, 7]: 14.3 (10.1) mg*h/dL
AUE0-240min (area under plasma glucose excursions above baseline) [3, 7]: 249 (201) mg*h/dL
CE30min (plasma glucose excursion at 30 minutes) [3, 7]: 63.9 (38.6) mg/dL
CEmax (maximum plasma glucose excursion) [3, 7]: 106 (61.1) mg/dL
tCEmax (time to maximum plasma glucose excursion) [3, 7]: 70.0 (50‐90) min
tPG increase ≥ 20 mg/dL (time to increase in plasma glucose ≥[…]) [3, 7]: 14.0 (7‐48) min
tPG ≥70 mg/dL (time to reach plasma glucose ≥[…]) [3, 7]: 10.0 (2‐27) min
AUE0-30min [3, 8]: 19.0 (6.43) mg*h/dL
AUE0-240min (area under plasma glucose excursions above baseline) [3, 8]: 406 (175) mg*h/dL
CE30min (plasma glucose excursion at 30 minutes) [3, 8]: 86.8 (27.2) mg/dL
CEmax (maximum plasma glucose excursion) [3, 8]: 154 (48.4) mg/dL
tCEmax (time to maximum plasma glucose excursion) [3, 8]: 90.0 (70‐150) min
tPG increase ≥ 20 mg/dL (time to increase in plasma glucose ≥[…]) [3, 8]: 11.0 (8‐20) min
tPG ≥70 mg/dL (time to reach plasma glucose ≥[…]) [3, 8]: 6.0 (5‐11) min
AUE0-30min [3, 9]: 21.9 (5.68) mg*h/dL
AUE0-240min (area under plasma glucose excursions above baseline) [3, 9]: 535 (187) mg*h/dL
CE30min (plasma glucose excursion at 30 minutes) [3, 9]: 94.2 (21.9) mg/dL
CEmax (maximum plasma glucose excursion) [3, 9]: 192 (54.1) mg/dL
tCEmax (time to maximum plasma glucose excursion) [3, 9]: 90.0 (70‐150) min
tPG increase ≥ 20 mg/dL (time to increase in plasma glucose ≥[…]) [3, 9]: 9.00 (8‐14) min
tPG ≥70 mg/dL (time to reach plasma glucose ≥[…]) [3, 9]: 6.0 (2‐8) min
